Data as given in patent publication US10093656B2, “Fused-ring or tricyclic aryl pyrimidine compound used as kinase inhibitor” (NANJING SANHOME PHARMACEUTICAL CO., LTD, priority 2015, dated 2018).

What was measured:
[1] = test system: NCI-H1975 lung cancer patient-derived xenograft (CDX); experiment: Pharmacodynamics study in vivo, NCI-H1975 xenograft (CDX) model; set-up: species or system BALB/c nude mice; details: AZD9291 5 mg/kg
Procedure, shortened: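 Tumour volume, from two-dimensional caliper readings twice a week as V = 0.5 a×b2, followed over 21 days of daily oral dosing at 10 or 20 mg/kg. Hosts were female BALB/c nude mice, 6-8 weeks, bearing subcutaneous NCI-H1975 implants grown to about 150-200 mm^3 before treatment.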

[2] = test system: NCI-H1975 cells EGFR L858R/T790M; experiment: NCI-H1975 cell viability assay (Cell Titer-Glo, 6 days); type: cell-based; details: Homo sapiens, 144 h
Procedure, shortened: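 A431 (EGFR WT) and NCI-H1975 (EGFR L858R/T790M) cells treated for 6 days at 37° C, in duplicate with 10 three-fold doses from 10 μM to 0.508 nM final. Viability read as CellTiter-Glo luminescence. IC50 from four-parameter fit of % inhibition.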

[3] = target: T1, EGFR T790M/L858R (Homo sapiens, UniProt P00533, L858R/T790M); experiment: EGFR T790M/L858R enzyme HTRF inhibition assay; type: biochemical; details: 20 μM ATP, read-out: EGFR L858R/T79M IC50
T1 construct: purchased Life technology (Madison, Wis.)
T1 sequence (P00533 25-1210 T790M/L858R): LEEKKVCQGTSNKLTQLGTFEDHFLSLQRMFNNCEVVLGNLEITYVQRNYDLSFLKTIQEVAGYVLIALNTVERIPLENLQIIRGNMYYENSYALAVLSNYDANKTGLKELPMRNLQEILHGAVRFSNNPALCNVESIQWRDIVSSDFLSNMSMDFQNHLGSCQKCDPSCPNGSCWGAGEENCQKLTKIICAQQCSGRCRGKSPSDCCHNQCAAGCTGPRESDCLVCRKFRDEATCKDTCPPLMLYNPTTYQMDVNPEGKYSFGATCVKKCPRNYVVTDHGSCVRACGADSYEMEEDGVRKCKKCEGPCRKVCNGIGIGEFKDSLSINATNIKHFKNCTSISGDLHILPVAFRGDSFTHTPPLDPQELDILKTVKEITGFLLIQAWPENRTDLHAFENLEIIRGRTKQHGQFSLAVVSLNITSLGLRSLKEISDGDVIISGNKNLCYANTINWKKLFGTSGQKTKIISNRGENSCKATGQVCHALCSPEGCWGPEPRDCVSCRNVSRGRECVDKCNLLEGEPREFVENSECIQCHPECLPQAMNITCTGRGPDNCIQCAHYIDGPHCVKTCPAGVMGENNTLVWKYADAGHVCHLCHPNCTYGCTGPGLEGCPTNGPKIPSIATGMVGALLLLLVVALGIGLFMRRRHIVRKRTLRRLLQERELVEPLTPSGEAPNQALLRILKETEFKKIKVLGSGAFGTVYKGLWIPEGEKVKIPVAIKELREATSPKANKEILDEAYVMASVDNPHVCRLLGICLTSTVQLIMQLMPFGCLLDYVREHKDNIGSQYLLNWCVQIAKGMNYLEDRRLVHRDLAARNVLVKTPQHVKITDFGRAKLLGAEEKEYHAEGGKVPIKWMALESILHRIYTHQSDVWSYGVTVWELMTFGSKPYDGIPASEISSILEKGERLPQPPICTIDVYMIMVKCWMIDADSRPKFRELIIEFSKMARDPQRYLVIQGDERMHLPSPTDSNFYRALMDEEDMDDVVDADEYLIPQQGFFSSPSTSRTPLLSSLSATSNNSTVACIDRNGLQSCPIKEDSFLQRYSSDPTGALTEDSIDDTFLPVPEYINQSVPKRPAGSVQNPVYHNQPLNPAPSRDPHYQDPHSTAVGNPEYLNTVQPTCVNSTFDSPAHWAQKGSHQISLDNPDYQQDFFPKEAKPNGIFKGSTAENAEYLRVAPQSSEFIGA
Procedure, shortened: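 HTRF assay with 0.04 nM enzyme, 1 μM biotin-TK1 peptide and 20 μM ATP, 60 min at 23° C. Product detected with Eu-anti-TK1 antibody/XL665 (60 min at 23° C); compound at 10 doses, 300 nM to 0.015 nM final. IC50 from four-parameter fit.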

IC50 [2]: 0.09 µM
IC50 [3]: 0.0005 µM
SMILES: C=CC(=O)Nc1cc(Nc2ncc(F)c(-c3c4n(c5cc(F)ccc35)CCOC4)n2)c(OC)cc1N(C)CCN(C)C [Embodiment 33, N-(2-((2-(Dimethylamino)ethyl)(methyl)amino)-5-((5-fluoro-4-(7-fluoro-3,4-dihydro-1H-[1,4]oxazino[4,3-a]indol-10-yl)pyrimidin-2-yl)amino)-4-methoxyphenyl)acrylamide]
Tumor Volume (mm^3) 4 days ([1]; day 4, oral daily: compound 30 10 mg/kg, 33, 34, 40, 42, 43 20 mg/kg): 91 mm^3
Tumor Volume (mm^3) 7 days ([1]; day 7, oral daily: compound 30 10 mg/kg, 33, 34, 40, 42, 43 20 mg/kg): 68 mm^3
Tumor Volume (mm^3) 11 days ([1]; day 11, oral daily: compound 30 10 mg/kg, 33, 34, 40, 42, 43 20 mg/kg): 43 mm^3
Tumor Volume (mm^3) 14 days ([1]; day 14, oral daily: compound 30 10 mg/kg, 33, 34, 40, 42, 43 20 mg/kg): 27 mm^3
Tumor Volume (mm^3) 18 days ([1]; day 18, oral daily: compound 30 10 mg/kg, 33, 34, 40, 42, 43 20 mg/kg): 9 mm^3
Tumor Volume (mm^3) 21 days ([1]; day 21, oral daily: compound 30 10 mg/kg, 33, 34, 40, 42, 43 20 mg/kg): 3 mm^3
